Source: patent US12377071B2, “Methods of treating conditions related to the S1P1 receptor” (Arena Pharmaceuticals, Inc., priority 2015, dated 2025)

Key:
[1] = tested on: peripheral blood lymphocyte (PBL) counts; test: Phase 1 single dose study: peripheral blood lymphocyte counts; format: in vivo, human
Experimental: Compound 1 was administered as the L-arginine salt.

subjects = test: Phase 1 single dose study: safety and tolerability
Experimental: A phase 1 study with Compound 1 was conducted with single dosing at 0.1 mg, 0.35 mg, 1 mg, 3 mg, and 5 mg. Compound 1 was administered as the L-arginine salt.

male Sprague-Dawley rats = conditions: cited from earlier work

For `O=C(O)C[C@H]1CCc2c1[nH]c1ccc(OCc3ccc(C4CCCC4)c(C(F)(F)F)c3)cc21` [Compound 1, (R)-2-(7-(4-cyclopentyl-3-(trifluoromethyl)benzyloxy)-1,2,3,4-tetrahydrocyclopenta [b]indol-3-yl)acetic acid], the “Persistence of PBL nadir” value ([1]; single dose) was 24 h, the “Time after dosing by which total PBL counts were reduced” value ([1]; single dose) was 2 to 4 h and the “Time of PBL nadir” value ([1]; single dose) was no more than 8 h. The “PBL counts reduced by” value ([1]; single dose 3 mg) was roughly 40%, the “PBL counts reduced by” value ([1]; single dose 5 mg) was roughly 55% and the “Recovery of PBL counts to baseline” value ([1]; single dose, after the nadir) was 4 days. For the same compound, the “Absolute number of peripheral blood B cells, T cells, NK cells, and all T cell subsets except TEM cells” value ([1]; single dosing at 3 and 5 mg) was “dose responsive decline”, the “Vital signs, ECGs, pulmonary function tests, ophthalmoscopy, clinical laboratory tests” value (subjects; in vivo) was “no other clinically significant safety issues” and the Maximum tolerated dose (subjects; single dosing) was 3 mg. The “Deaths or serious adverse events” value (subjects; single dosing 0.1 to 5 mg) was “no deaths or serious adverse events” and the Bradycardia (male Sprague-Dawley rats) was “no or substantially no bradycardia”.
